Measurements taken from US20090142269A1, “ISOTOYPICALLY-LABELED BENZOTHIAZOLE COMPOUNDS AS IMAGING AGENTS FOR AMYLOIDOGENIC PROTEINS” (UNIVERSITY OF OITTSBURGH-OF THE COMMONWEALTH SYSTEM OF …, priority 2005, published 2009).

Tested on: not listed separately
Assay: Baboon brain entry study (PET time-activity curves)
Format: in vivo
Conditions: 40 kg baboon, 8 mCi intravenously, PET brain imaging over 2 h post injection
Experimental: A 40 kg baboon was anesthesized, immobilized, and placed on a ventilator. The baboon was positioned in a PET scanner to image the brain, and a transmission scan was performed to correct for attenuation. The baboon was injected intravenously with a solution containing 8 mCi of [F-18]-6-Methoxy-2-(4′-fluorophenyl)benzothiazole, and the brain was imaged in a series of increasing data collection time bins over 2 h post injection. Following data acquisition, the images were reconstructed and regions of interest were drawn. Decay and […] corrected time-activity curves (TAC) were generated for each of the regions to determine the quantitative time course of radioactivity in each brain region.

Compound	brain penetration of the radiotracer	clearance of radioactivity from normal baboon brain
COc1ccc2nc(-c3ccc([18F])cc3)sc2c1 [[F-18]-6-Methoxy-2-(4′-fluorophenyl)benzothiazole]	excellent brain penetration	rapid clearance

Molecular target: T1, synthetic Aβ(1-40) (Homo sapiens, UniProt P05067)
T1 construct: analyzed, using synthetic Aβ(1-40)
Assay: Competition of [3H]BTA-1 binding from synthetic Aβ(1-40)
Conditions: in vitro, aggregated amyloid
Experimental: The characteristics of benzothiazole derivative binding were analyzed, using synthetic Aβ(1-40) and 2-(4′-[^3H]methylamino-phenyl)-benzothiazole ([^3H]BTA-1) in phosphate-buffered saline (pH 7.4), as previously described. Klunk et al., Life Sci. 69:1471 (2001); Mathis et al., Bioorg. Med. Chem. Lett. 12: 295 (2002).
The characteristics of benzothiazole derivative binding were analyzed using synthetic Aβ(1-40) and 2-(4′ [^3H]methylamino-phenyl)-benzothiazole ([^3H]BTA-1) in phosphate-buffered saline (pH 7.4), as previously described. Klunk et al., Life Sci. 69:1471 (2001); Mathis et al., Bioorg. Med. Chem. Lett., 12:295 (2002). The table below lists the inhibition constants (Ki) of exemplary benzothiazole compounds shown for competition of [^3H]BTA-1 binding from synthetic Aβ(1-40).

T1 sequence (P05067 672-711): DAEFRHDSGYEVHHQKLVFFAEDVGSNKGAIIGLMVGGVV

Compound	affinity of the ligand in vitro for aggregated amyloid
COc1ccc2nc(-c3ccc([18F])cc3)sc2c1 [[F-18]-6-Methoxy-2-(4′-fluorophenyl)benzothiazole]	relatively high affinity

Same assay, conditions: inhibition constant for competition of [3H]BTA-1 binding from synthetic Aβ(1-40), phosphate-buffered saline pH 7.4

Ki	Compound
5.4 nM	CNc1ccc(-c2nc3ccc(O)cc3s2)c(N)c1
14 nM	Nc1cccc(F)c1-c1nc2ccc(O)cc2s1
76.9 nM	CNc1ccc(-c2nc3ccccc3s2)cc1CCCF
13.5 nM	COc1ccc2sc(-c3ccc(F)cc3)nc2c1
154 nM	COc1ccc2nc(-c3ccc(F)c(F)c3)sc2c1
1.8 nM	CNc1ccc2nc(-c3ccc(OC)cc3)sc2c1
186 nM	Oc1cccc2nc(-c3ccc(F)cc3)sc12
26 nM	CNc1c(F)c(F)c(-c2nc3ccc(OC)cc3s2)c(F)c1F
81.2 nM	COc1ccc2sc(-c3ccc(F)cc3)nc2c1OC
27.2 nM	FCCCOc1ccc2nc(-c3ccc(F)cc3)sc2c1
46.6 nM	Oc1ccc2nc(-c3ccc(CF)cc3)sc2c1
4.9 nM	Nc1cc(F)ccc1-c1nc2ccccc2s1
51.6 nM	COc1cc(O)c2nc(-c3ccc(F)cc3)sc2c1
1270 nM	CS(=O)(=O)c1ccc2nc(-c3ccc(F)cc3)sc2c1
133 nM	N#Cc1ccc2nc(-c3ccc(F)cc3)sc2c1
10.7 nM	CN(C)c1ccc2nc(-c3ccc(O)cc3)sc2c1
48.8 nM	CNc1cc(F)ccc1-c1nc2ccc(O)cc2s1
31.3 nM	Oc1ccc2nc(-c3ccc(F)cc3O)sc2c1
19.1 nM	Cc1ccc(-c2nc3ccccc3s2)cc1
16.6 nM	COc1ccc2nc(-c3ccc(F)cc3OC)sc2c1
311 nM	OCc1ccc(-c2nc3ccc(O)cc3s2)cc1
19.6 nM	Nc1ccccc1-c1nc2ccccc2s1
84.8 nM	Nc1ccc2nc(-c3ccc(F)cc3)sc2c1
4.9 nM	CNc1ccc(-c2nc3ccc(OCCOCCOCCF)cc3s2)cc1
180 nM	Oc1ccc2nc(-c3ccc(F)cc3)sc2c1
8.8 nM	Brc1ccc(-c2nc3ccccc3s2)cc1
334 nM	COc1ccc(OC)c2sc(-c3ccc(F)cc3)nc12

Ki	Compound
608 nM	COc1cccc2sc(-c3ccc(F)cc3)nc12
1.3 nM	COc1ccc(-c2nc3ccc(N(C)C)cc3s2)cc1
14.9 nM	COc1cccc2nc(-c3ccc(F)cc3)sc12
2.6 nM	Ic1ccc(-c2nc3ccccc3s2)cc1
7.4 nM	CNc1ccc2nc(-c3ccc(F)cc3)sc2c1
94.9 nM	CNc1cc(N)ccc1-c1nc2ccc(O)cc2s1
1.1 nM	COc1ccc2nc(-c3ccc(F)cc3O)sc2c1
1000 nM	Nc1c(F)c(F)c(-c2nc3ccc(O)cc3s2)c(F)c1F
43.8 nM	Fc1ccc(-c2nc3ccccc3s2)cc1
3.1 nM	Nc1c(F)cccc1-c1nc2ccc(O)cc2s1
130 nM	Oc1ccc2nc(-c3ccc(F)c(Cl)c3)sc2c1
116 nM	COc1cc(OC)c2nc(-c3ccc(F)cc3)sc2c1
18.9 nM	Oc1ccc2nc(-c3ccc(F)c(F)c3)sc2c1
9.8 nM	FCCOc1ccc2nc(-c3ccc(F)cc3)sc2c1
273 nM	CNc1c(F)c(F)c(-c2nc3ccc(O)cc3s2)c(F)c1F
88.3 nM	COc1cc2nc(-c3ccc(F)cc3)sc2cc1OC
33.5 nM	COc1cc(OC)c2sc(-c3ccc(F)cc3)nc2c1
381 nM	Oc1cccc2sc(-c3ccc(F)cc3)nc12
504 nM	Oc1ccc2sc(-c3ccc(F)cc3)nc2c1
21.8 nM	Nc1ccc(F)cc1-c1nc2ccc(O)cc2s1
1.2 nM	CNc1ccc2nc(-c3ccc(O)cc3F)sc2c1
14.8 nM	Nc1cc(F)ccc1-c1nc2ccc(O)cc2s1
811 nM	O=[N+]([O-])c1cc(F)ccc1-c1nc2ccccc2s1
6 nM	COc1ccc2nc(-c3ccc(F)cc3)sc2c1
119 nM	COc1ccc2nc(-c3c(F)c(F)c(N)c(F)c3F)sc2c1
46 nM	CNc1c(F)cccc1-c1nc2ccc(O)cc2s1
5.3 nM	CNc1ccc2nc(-c3ccc(O)c(F)c3)sc2c1
